biological target: T1, JAK3 (Homo sapiens, UniProt P52333); experiment: JAK3 Inhibition Assay; format: biochemical; details: 1 μM poly(Glu)4Tyr, 5 μM ATP, 1 nM JAK3, 25 °C; read-out: JAK3 enzyme inhibition (Ki)
T1 sequence (P52333 1-1124): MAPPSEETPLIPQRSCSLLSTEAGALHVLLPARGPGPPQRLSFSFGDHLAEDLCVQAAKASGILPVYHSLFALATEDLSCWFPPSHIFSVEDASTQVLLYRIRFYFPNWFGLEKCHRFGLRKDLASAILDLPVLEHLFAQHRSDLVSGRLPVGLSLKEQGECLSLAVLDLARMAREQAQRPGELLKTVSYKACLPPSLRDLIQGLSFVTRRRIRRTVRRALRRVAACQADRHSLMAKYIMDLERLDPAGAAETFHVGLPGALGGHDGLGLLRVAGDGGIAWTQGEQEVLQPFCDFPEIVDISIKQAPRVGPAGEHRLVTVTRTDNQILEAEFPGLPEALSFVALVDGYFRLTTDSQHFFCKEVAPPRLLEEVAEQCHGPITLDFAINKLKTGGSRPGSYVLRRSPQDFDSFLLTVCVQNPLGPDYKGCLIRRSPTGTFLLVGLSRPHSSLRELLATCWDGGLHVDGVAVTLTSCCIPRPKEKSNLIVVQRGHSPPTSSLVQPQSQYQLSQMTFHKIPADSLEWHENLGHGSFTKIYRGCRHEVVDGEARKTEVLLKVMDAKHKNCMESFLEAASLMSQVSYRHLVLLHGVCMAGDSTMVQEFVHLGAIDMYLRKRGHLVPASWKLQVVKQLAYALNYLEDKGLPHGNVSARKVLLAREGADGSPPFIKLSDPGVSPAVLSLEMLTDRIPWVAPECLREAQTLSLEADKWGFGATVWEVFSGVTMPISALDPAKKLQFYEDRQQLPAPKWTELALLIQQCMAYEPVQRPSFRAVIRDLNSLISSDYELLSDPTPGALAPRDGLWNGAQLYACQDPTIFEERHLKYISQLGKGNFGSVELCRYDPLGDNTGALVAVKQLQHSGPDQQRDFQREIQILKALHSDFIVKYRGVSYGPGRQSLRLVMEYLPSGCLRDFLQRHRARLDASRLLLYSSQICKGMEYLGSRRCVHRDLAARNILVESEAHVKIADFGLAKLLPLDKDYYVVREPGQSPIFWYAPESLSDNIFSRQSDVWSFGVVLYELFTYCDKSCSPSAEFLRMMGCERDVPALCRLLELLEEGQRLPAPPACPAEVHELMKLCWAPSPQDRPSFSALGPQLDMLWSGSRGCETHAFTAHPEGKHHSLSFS
Procedure: (§1) Compounds were screened for their ability to inhibit JAK using the […] below. Reactions were carried out in a kinase buffer containing 100 mM HEPES (pH 7.4), 1 mM DTT, 10 mM MgCl2, 25 mM NaCl, and 0.01% BSA.
(§2) Substrate concentrations in the assay were 5 μM ATP (200 uCi/μmole ATP) 1 μM poly(Glu)4Tyr. Reactions were carried out at 25 ° C. and 1 nM JAK3.
(§3) To each well of a 96 well polycarbonate plate was added 1.5 μl of a JAK3 inhibitor along with 50 μl of kinase buffer containing 2 μM poly(Glu)4Tyr and 10 μM ATP. This was then mixed and 50 μl of kinase buffer 2 nM JAK3 enzyme was added to start the reaction. After 20 minutes at room temperature (25C), the reaction was stopped with 50 μl of 20% trichloroacetic acid (TCA) that also contained 0.4 mM ATP. The entire contents of each well were then transferred to a 96 well glass fiber filter plate using a TomTek Cell Harvester. After washing, 60 μl of scintillation fluid was added and ^33P incorporation detected on a Perkin Elmer TopCount.

Ki [nM]	SMILES
500 to 5000	C=Cc1ncnc2[nH]ccc12 [Compound 14]
> 5000	CC(=O)N1CC=C(c2ncnc3[nH]ccc23)CC1 [Compound 15]
> 5000	O=C(CC(F)(F)F)N1CC=C(c2ncnc3[nH]ccc23)CC1 [Compound 16]
500 to 5000	N#CCC(=O)N1CC=C(c2ncnc3[nH]ccc23)CC1 [Compound 17]
< 500	C=C(c1ncnc2[nH]ccc12)C1CCCC1 [Compound 18]
< 500	CC1CC=C(c2ncnc3[nH]ccc23)C1C (stereo not drawn) [Compound 19]
< 500	C1=C(c2ncnc3[nH]ccc23)CCCCC1 [Compound 20]
< 500	C1=C(c2ncnc3[nH]ccc23)C2CCC1C2 (stereo not drawn) [Compound 21]
500 to 5000	C=C(c1ncnc2[nH]ccc12)C1CCCN(C(=O)OC(C)(C)C)C1 (stereo not drawn) [Compound 22]
500 to 5000	CC(c1ccccc1)c1ncnc2[nH]ccc12 (stereo not drawn) [Compound 23]
> 5000	COC(=O)C(C)Cc1ncnc2[nH]ccc12 (stereo not drawn) [Compound 24]
500 to 5000	CC(C)Cc1ncnc2[nH]ccc12 [Compound 25]

biological target: JAK2 (Homo sapiens, UniProt O60674); experiment: JAK2 Inhibition Assay; format: biochemical; details: 15 μM poly(Glu)4Tyr, 12 μM ATP; read-out: JAK2 enzyme inhibition (Ki)
Procedure: as §1, §2, §3
As described above in Example 11 except that JAK-2 enzyme is used, the final poly(Glu)4Tyr concentration is 15 μM, and final ATP concentration is 12 μM.

Sequence of JAK2 (O60674 whole entry): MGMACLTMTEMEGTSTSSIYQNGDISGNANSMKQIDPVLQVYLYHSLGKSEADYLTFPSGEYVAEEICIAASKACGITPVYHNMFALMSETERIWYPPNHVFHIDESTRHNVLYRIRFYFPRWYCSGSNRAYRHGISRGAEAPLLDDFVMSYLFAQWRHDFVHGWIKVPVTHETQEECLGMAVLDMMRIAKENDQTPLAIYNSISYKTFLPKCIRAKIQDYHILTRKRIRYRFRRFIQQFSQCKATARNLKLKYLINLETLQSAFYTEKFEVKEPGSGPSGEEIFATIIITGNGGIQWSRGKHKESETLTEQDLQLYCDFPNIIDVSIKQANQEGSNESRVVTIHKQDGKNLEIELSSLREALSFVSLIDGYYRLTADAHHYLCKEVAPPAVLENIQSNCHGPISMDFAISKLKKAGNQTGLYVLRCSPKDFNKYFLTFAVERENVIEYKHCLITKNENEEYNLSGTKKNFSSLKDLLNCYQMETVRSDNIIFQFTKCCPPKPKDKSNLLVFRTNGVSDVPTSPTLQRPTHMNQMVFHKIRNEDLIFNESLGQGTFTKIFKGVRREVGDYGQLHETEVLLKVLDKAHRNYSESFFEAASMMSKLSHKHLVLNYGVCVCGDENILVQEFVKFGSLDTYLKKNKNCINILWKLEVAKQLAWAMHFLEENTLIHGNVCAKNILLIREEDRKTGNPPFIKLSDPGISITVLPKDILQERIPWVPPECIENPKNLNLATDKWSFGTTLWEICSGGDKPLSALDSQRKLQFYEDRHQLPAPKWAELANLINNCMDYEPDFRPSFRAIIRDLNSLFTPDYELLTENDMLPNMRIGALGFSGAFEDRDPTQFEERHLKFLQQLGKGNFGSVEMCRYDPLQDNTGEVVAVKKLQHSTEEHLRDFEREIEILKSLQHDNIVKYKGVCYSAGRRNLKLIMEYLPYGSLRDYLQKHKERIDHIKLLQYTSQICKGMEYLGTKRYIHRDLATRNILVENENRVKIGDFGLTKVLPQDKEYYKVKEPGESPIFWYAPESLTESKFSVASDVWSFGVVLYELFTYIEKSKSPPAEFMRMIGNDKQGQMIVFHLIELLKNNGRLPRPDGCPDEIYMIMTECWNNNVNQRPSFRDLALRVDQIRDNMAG

Ki [nM]	SMILES
500 to 5000	C=C(c1ncnc2[nH]ccc12)C1CCCCC1 [Compound 12]
500 to 5000	C=Cc1ncnc2[nH]ccc12 [Compound 14]
> 5000	CC(=O)N1CC=C(c2ncnc3[nH]ccc23)CC1 [Compound 15]
500 to 5000	O=C(CC(F)(F)F)N1CC=C(c2ncnc3[nH]ccc23)CC1 [Compound 16]
< 500	N#CCC(=O)N1CC=C(c2ncnc3[nH]ccc23)CC1 [Compound 17]
< 500	C=C(c1ncnc2[nH]ccc12)C1CCCC1 [Compound 18]
< 500	CC1CC=C(c2ncnc3[nH]ccc23)C1C (stereo not drawn) [Compound 19]
< 500	C1=C(c2ncnc3[nH]ccc23)CCCCC1 [Compound 20]
< 500	C1=C(c2ncnc3[nH]ccc23)C2CCC1C2 (stereo not drawn) [Compound 21]
500 to 5000	C=C(c1ncnc2[nH]ccc12)C1CCCN(C(=O)OC(C)(C)C)C1 (stereo not drawn) [Compound 22]
500 to 5000	CC(c1ccccc1)c1ncnc2[nH]ccc12 (stereo not drawn) [Compound 23]
> 5000	COC(=O)C(C)Cc1ncnc2[nH]ccc12 (stereo not drawn) [Compound 24]
500 to 5000	CC(C)Cc1ncnc2[nH]ccc12 [Compound 25]

biological target: PKA (Homo sapiens, UniProt P17612); experiment: PKA Inhibition Assay (coupled enzyme assay); format: biochemical; details: 50 μM ATP, 80 μM Kemptide, 18 nM PKA, 30 °C
Procedure: Compounds were screened for their ability to inhibit PKA using a standard coupled enzyme assay (Fox et al., Protein Sci, 1998, 7, 2249). Assays were carried out in a mixture of 100 mM HEPES (pH 7.5), 10 mM MgCl2, 25 mM NaCl, 1 mM DTT and 3% DMSO. Final substrate concentrations in the assay were 50 μM ATP (Sigma Chemicals) and 80 μM peptide (Kemptide, American Peptide, Sunnyvale, Calif.). Assays were carried out at 30 ° C. and 18 nM PKA. Final concentrations of the components of the coupled enzyme system were 2.5 mM phosphoenolpyruvate, 300 μM NADH, 30 μg/ml pyruvate kinase and 10 μg/ml lactate dehydrogenase.
An assay stock buffer solution was prepared containing all of the reagents listed above, with the exception of ATP, and the test compound of the present invention. 55 μl of the stock solution was placed in a 96 well plate followed by addition of 2 μl of DMSO stock containing serial dilutions of the test compound of the present invention (typically starting from a final concentration of 5 μM). The plate was preincubated for 10 minutes at 30° C. and the reaction initiated by addition of 5 μl of ATP (final concentration 50 μM). Initial reaction rates were determined with a Molecular Devices SpectraMax Plus plate reader over a 15 minute time course. IC50 and Ki data were calculated from non-linear regression analysis using the Prism software package (GraphPad Prism version 3.0a for Macintosh, GraphPad Software, San Diego, Calif., USA).

Ki [nM]	SMILES
500 to 5000	C=C(c1ncnc2[nH]ccc12)C1CCCCC1 [Compound 12]
500 to 5000	C=Cc1ncnc2[nH]ccc12 [Compound 14]
500 to 5000	CC(=O)N1CC=C(c2ncnc3[nH]ccc23)CC1 [Compound 15]
500 to 5000	O=C(CC(F)(F)F)N1CC=C(c2ncnc3[nH]ccc23)CC1 [Compound 16]
500 to 5000	N#CCC(=O)N1CC=C(c2ncnc3[nH]ccc23)CC1 [Compound 17]
500 to 5000	C=C(c1ncnc2[nH]ccc12)C1CCCC1 [Compound 18]
500 to 5000	CC1CC=C(c2ncnc3[nH]ccc23)C1C (stereo not drawn) [Compound 19]
500 to 5000	C1=C(c2ncnc3[nH]ccc23)CCCCC1 [Compound 20]
500 to 5000	C1=C(c2ncnc3[nH]ccc23)C2CCC1C2 (stereo not drawn) [Compound 21]
500 to 5000	C=C(c1ncnc2[nH]ccc12)C1CCCN(C(=O)OC(C)(C)C)C1 (stereo not drawn) [Compound 22]
500 to 5000	CC(c1ccccc1)c1ncnc2[nH]ccc12 (stereo not drawn) [Compound 23]
500 to 5000	COC(=O)C(C)Cc1ncnc2[nH]ccc12 (stereo not drawn) [Compound 24]
500 to 5000	CC(C)Cc1ncnc2[nH]ccc12 [Compound 25]

biological target: T2, ROCK (Homo sapiens, UniProt Q13464); experiment: ROCK Inhibition Assays; format: biochemical; details: read-out: ROCK enzyme inhibition (Ki)
T2 construct: ROCK I (AA 6-553)
Procedure: Compounds are screened for their ability to inhibit ROCK I (AA 6-553) activity using a standard coupled enzyme system (Fox et al. Protein Sci. 7: 2249, 1998). Reactions are carried out in a solution containing 100 mM HEPES (pH 7.5), 10 mM MgCl2, 25 mM NaCl, 2 mM DTT and 1.5% DMSO. Final substrate concentrations in the assay are 45 μM ATP (Sigma Chemicals, St Louis, Mo.) and 200 μM peptide (American Peptide, Sunnyvale, Calif.). Reactions are carried out at 30 ° C. and 45 nM ROCK I. Final concentrations of the components of the coupled enzyme system are 2.5 mM phosphoenolpyruvate, 350 μM NADH, 30 μg/ml pyruvate kinase and 10 μg/ml lactate dehydrogenase.
Compounds are screened for their ability to inhibit ROCK using a standard radioactive enzyme assay. Assays are carried out in a solution containing 100 mM HEPES (pH 7.5), 10 mM MgCl2, 25 mM NaCl, 2 mM DTT and 1.5% DMSO. Final substrate concentrations in the assay are 13 μM [γ-^33P] ATP (25 mCi ^33P ATP/mmol ATP, Perkin Elmer, Cambridge, Mass./Sigma Chemicals, St Louis, Mo.) and 27 μM Myelin Basic Protein (MBP). Final enzyme concentration in the assay is 5 nM ROCK. Assays are carried out at room temperature. 1.5 μl of DMSO stock containing serial dilutions of the compound of the present invention (concentrations ranging from 10 μM to 2.6 nM) is placed in a 96 well plate. 50 μl of Solution 1 (100 mM HEPES (pH 7.5), 10 mM MgCl2, […] [γ-^33P] ATP) is added to the plate. The reaction is initiated by addition of 50 μl of Solution 2 (100 mM HEPES (pH 7.5), 10 mM MgCl2, 4 mM DTT, […] and 10 nM ROCK). After 2 hours the reaction is quenched with 50 μL of 30% trichloroacetic acid (TCA, Fisher) containing 9 mM ATP. Transfer of 140 μL of the quenched reaction to a glass fiber filter plate (Corning, Cat. No.3511) is followed by washing 3 times with 5% TCA. 50 μL of Optima Gold scintillation fluid (Perkin Elmer) is added and the plates are counted on a Top Count (Perkin Elmer). After removing mean background values for all of the data points the data is fit using Prism software to obtain a Ki(app).

T2 sequence (Q13464 6-553): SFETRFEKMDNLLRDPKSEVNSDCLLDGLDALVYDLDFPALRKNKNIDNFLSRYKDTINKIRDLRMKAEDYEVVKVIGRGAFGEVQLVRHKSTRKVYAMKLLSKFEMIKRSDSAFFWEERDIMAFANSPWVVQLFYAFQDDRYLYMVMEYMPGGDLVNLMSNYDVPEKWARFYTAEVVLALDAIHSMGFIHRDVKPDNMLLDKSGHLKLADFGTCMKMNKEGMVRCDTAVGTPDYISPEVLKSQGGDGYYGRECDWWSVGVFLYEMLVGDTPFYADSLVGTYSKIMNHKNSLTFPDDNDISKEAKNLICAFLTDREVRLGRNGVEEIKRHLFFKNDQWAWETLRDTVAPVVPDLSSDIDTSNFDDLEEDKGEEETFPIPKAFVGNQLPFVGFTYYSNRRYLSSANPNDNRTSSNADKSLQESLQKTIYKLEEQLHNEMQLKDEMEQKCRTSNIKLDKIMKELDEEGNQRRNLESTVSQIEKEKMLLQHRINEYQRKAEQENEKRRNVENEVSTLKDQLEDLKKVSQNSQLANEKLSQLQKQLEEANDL

Ki [nM]	SMILES
500 to 5000	C=C(c1ncnc2[nH]ccc12)C1CCCCC1 [Compound 12]
500 to 5000	C=Cc1ncnc2[nH]ccc12 [Compound 14]
500 to 5000	CC(=O)N1CC=C(c2ncnc3[nH]ccc23)CC1 [Compound 15]
500 to 5000	O=C(CC(F)(F)F)N1CC=C(c2ncnc3[nH]ccc23)CC1 [Compound 16]
500 to 5000	N#CCC(=O)N1CC=C(c2ncnc3[nH]ccc23)CC1 [Compound 17]
500 to 5000	C=C(c1ncnc2[nH]ccc12)C1CCCC1 [Compound 18]
500 to 5000	CC1CC=C(c2ncnc3[nH]ccc23)C1C (stereo not drawn) [Compound 19]
500 to 5000	C1=C(c2ncnc3[nH]ccc23)CCCCC1 [Compound 20]
500 to 5000	C1=C(c2ncnc3[nH]ccc23)C2CCC1C2 (stereo not drawn) [Compound 21]
500 to 5000	C=C(c1ncnc2[nH]ccc12)C1CCCN(C(=O)OC(C)(C)C)C1 (stereo not drawn) [Compound 22]
500 to 5000	CC(c1ccccc1)c1ncnc2[nH]ccc12 (stereo not drawn) [Compound 23]
500 to 5000	COC(=O)C(C)Cc1ncnc2[nH]ccc12 (stereo not drawn) [Compound 24]
500 to 5000	CC(C)Cc1ncnc2[nH]ccc12 [Compound 25]

Reference: patent publication US8633205B2, “Substituted pyrrolo[2,3-d]pyrimidines as inhibitors of protein kinases” (Vertex Pharmaceuticals Incorporated, priority 2005, dated 2014)
